Reference: patent US11815435B2, “Beta glucan immunopharmacodynamics” (HiberCell, Inc., priority 2017, dated 2023)

Tests used:
Assay type in all cases: in vivo, human
[1] = test system: anti-β-glucan antibody (IgG ABA); experiment: Anti-β-glucan antibody (ABA) levels in serum by ELISA after IV PGG, Phase I healthy donor trial; conditions: for ABA level changes: single dose PGG IV
Experimental: (§1) IPD changes induced by yeast soluble β-glucan were evaluated in a Phase I healthy donor trial, which included three cohorts of 12 healthy human volunteers aged 18-65 years. In Cohort 1, subjects were administered a single dose of 4 mg/kg yeast soluble β-glucan by IV infusion over 2-3 hours. In Cohort 2, subjects were administered 4 mg/kg PGG by IV infusion over 2-3 hours once weekly for 3 weeks. Half of the subjects received premedications which included low dose corticosteroids (4 mg of dexamethasone, PO) and low-dose H1 antagonists (50 mg diphenhydramine.
In Cohort 3, subjects received either 2 mg/kg PGG or 4 mg/kg PGG by IV infusion over 1-2 hours. The subjects were administered either dose of PGG once weekly for 2 weeks, then given a 2 week wash out (no PGG) and finally received one more dose of PGG (week 5). Adverse events and complete blood counts were evaluated. In addition, whole blood and serum was evaluated for the following at various time points post-infusion: PGG binding to immune cells (monocytes, neutrophils, B-cells, DC subsets), complement activation (C5a and Sc5b9), serum cytokine/chemokine levels, IgG ABA levels, flow cytometry of immune cells, circulating immune complex formation and Quantigene analysis of transcriptional profile. Table 1 lists each subject's pre-dose IgG ABA levels, PGG dose and whether they received premedications.
(§2) Subjects were stratified/classified into subgroups based on pre-infusion ABA levels. ABA cutoff levels were selected based on prior studies and are only exemplary. Classification may include only 2 subgroups based on an IgG ABA cutoff level of 15 μg/ml, 20 μg/ml, 25, μg/ml, 30 μg/ml, 35 μg/ml, 40 μg/ml, 45 μg/ml or 50 μg/ml. Classification may also include 3, 4, 5 or more subgroups with each subgroup corresponding to a specific IgG ABA level range. For example, a 3 subgroup classification may include a Low-ABA subgroup encompassing ABA level ranges of <15 μg/ml, <20 μg/ml, <25 μg/ml or <30 μg/ml, a Mid-ABA subgroup encompassing a range having a low end ABA level of 20 μg/ml, 25 μg/ml, 30 μg/ml, 35 μg/ml, 40 μg/ml or 45 μg/ml and a high end ABA level of 30 μg/ml, 35 μg/ml, 40 μg/ml, 45 μg/ml, 50 μg/ml or 55 μg/ml, and a High-ABA subgroup encompassing ABA level ranges of >35 μg/ml, >40 μg/ml, >45 μg/ml, >50 μg/ml, >55 μg/ml, >60 μg/ml, >65 μg/ml or >70 μg/ml. As discussed in International Published Application No. WO2015084732A1, various ABA cutoff levels may be used for reasons such as differences in soluble β-glucan immunotherapy treatments and preferences regarding inclusiveness and exclusiveness of subgroups. Here, subjects whose ABA levels were less than 20 μg/ml were considered Low-ABA. Subjects with ABA levels between 20 μg/ml and 50 μg/ml were considered Mid-ABA. Subjects with ABA levels greater than 50 μg/ml were High-ABA. Serum and cellular IPD markers were analyzed pre-infusion, 15 minutes, 30 minutes and 1 hour post-infusion, end of infusion (EOI) and 1 hour, 2 hours, 3 hours, 4 hours, 24 hours, 48 hours and 168 hours after EOI.
ABA levels were then followed in subjects through single and multiple doses of PGG. ABA levels were measured in serum by ELISA, and subjects were placed in subgroups based on pre-infusion ABA levels: Low-ABA (<20 μg/mL), Mid-ABA (20-50 μg/mL) or High-ABA (>50 μg/mL). Whole blood or serum was drawn from the subjects at various time points before and after a single dose (Cohort 1) or multiple weekly doses (Cohorts 2 and 3) of PGG infusion. […] In some cases, such as shown for subject 67 in the Low-ABA subgroup, the increase may lead to a change in subgroup (Low-ABA to Mid-ABA).
Increasing the time between soluble β-glucan doses may not only promote repeated acute IPD responses but also enhance acute IPD responses, which may increase the effectiveness of soluble β-glucan therapy. […]

IL-8, MCP-1, MIP-1β = experiment: Cytokine and chemokine serum levels (multiplex, Luminex) after IV PGG
Experimental: as §1
as §2, with “As discussed in International Published Application No. WO2015084732A1, various ABA cutoff levels may be used for reasons such as differences in soluble β-glucan immunotherapy treatments and preferences regarding inclusiveness and exclusiveness of subgroups. Here, subjects whose ABA levels were less than 20 μg/ml were considered Low-ABA. Subjects with ABA levels between 20 μg/ml and 50 μg/ml were considered Mid-ABA. Subjects with ABA levels greater than 50 μg/ml were High-ABA.” left out
Cytokine and chemokine serum levels were measured using Novex magnetic multiplex assay (Life Technologies) the Luminex XMAP technology. […]
The effect of premedications on IPD responses was also evaluated. […]

[2] = test system: intermediate monocytes; switched memory B cells and plasmablasts; experiment: Flow cytometry of PBMC for monocyte populations, activation markers and B cells
Experimental: Here, PBMC were stained with indicating markers and analyzed by flow cytometry. Each of the populations were assessed for expression of activation markers CD86, ICAM-1, HLA-DR and PD-L1 24 hours after infusion. In addition, approximately one week post-infusion, increased switched memory B cells and plasmablasts were detected (data not shown).

[3] = test system: innate immune activation marker genes; experiment: Gene expression in whole blood (Quantigeneplex); conditions: 3 hr post-infusion vs. pre-dose, no premedications
Excerpt: Whole blood was collected in PaxGene blood collection tubes (BD Biosciences) at various time points pre- and post-PGG administration. RNA was isolated and assayed by Quantigeneplex (Affymetrix) and the relative fold changes were log 2 transformed. Data presented are from subjects treated with PGG without premedications.

In the case of “β(1,6)-[poly-(1,3)-D-glucopyranosyl]-poly-β(1,3)-D-glucopyranose [PGG]”, the “ABA levels over the 5 week course of treatment” value ([1]; Cohort 3: weeks 1, 2, 2 week wash out, week 5 dose, High-, Mid-, Low-ABA subjects) is reported as “Increases in ABA were seen in all subjects with the largest increase occurring after administration of the week 5 dose”, the ABA subgroup classification ([1]; Cohort 3 Low-ABA subject, after the last (week 5) dose) is reported as “converted to the Mid-ABA classification” and the ABA level changes ([1]; High-ABA (>50 μg/ml) healthy subjects) is reported as “dropped during infusion with PGG and then rebounded about 48 hours EOI”. For the same substance, the ABA level changes ([1]; Low-ABA (<20 μg/ml) healthy subjects) was “essentially unaffected”, the ABA level changes ([1]; Mid-ABA (20-50 μg/ml) healthy subjects) was “increased at 48 hours after the EOI” and the “ABA levels after multiple doses” value ([1]; multiple weekly doses of PGG (Cohorts 2 and 3)) was “can increase ABA levels for some subjects”. For the same substance, the “PGG-mediated cytokine induction (IL-8) with premedications” value (IL-8, MCP-1, MIP-1β; Mid-ABA and High-ABA subjects, dexamethasone and diphenhydramine premedication vs none) was “dampened”, the “increases in cytokine and chemokine serum levels, especially IL-8 and MCP-1” value (IL-8, MCP-1, MIP-1β; pre-dose to end of infusion, healthy subjects) was “consistently detected” and the “acute IPD response in IL-8, MCP-1 and MIP-1 levels” value (IL-8, MCP-1, MIP-1β; two High-ABA subjects, weekly dosing, after week 2 infusion) was “acute IPD response was seen”. The “appearance of intermediate monocytes and activation markers” value ([2]; 24 hrs after EOI, High-ABA subjects) was “a population of intermediate monocytes expressing higher levels of the activation markers CD86, PD-L1 and HLA-DR was observed”, the “switched memory B cells and plasmablasts” value ([2]; approximately one week post-infusion, data not shown) was “increased” and the “expression of innate immune activation marker genes” value [3] was “consistently increased in subjects with higher levels of ABA”.
